Patent publication US9012403B2, “Peptides as active agents to stabilize biological barriers” (XiberScience GmbH, priority 2010, dated 2015)
Marks after values point to notes of the source that are not given here.

Tests used:
GEF = experiment: GEF-activity in membrane fractions of Caco-2 cells (RhoGEF Exchange Assay); type: cell-based
Description: To measure the GEF-inhibitory effect, the following cell lines were used: Caco-2 (epithelial cells from adeno-carcinoma), ECV304 (epithelial cells from bladder carcinoma) and HpMec (endothelial cells, immortalized pulmonary micro-vascular cells). All cells were grown at standard conditions (37° C., 5% CO2 and 95% relative humidity (rH)). Culture Medium used for Caco-2: DMEM+1 mM sodium pyruvate+20% FCS+1% Penicillin Streptomycin; for ECV 304: RPMI 1640+10% FCS+1% Penicillin Streptomycin; and for HpMec: IMDM+25 mM Hepes+10% Human Serum+1% Penicillin Streptomycin+1% L-Glutamine+ECGS/Heparin 2 ml. 4 h before the experiment, cells were starved by serum withdrawal. To induce GEF-activity, cells were stimulated with thrombin, lipopolysaccharide (LPS) or PMA for the indicated time in presence or absence of 50 μg/ml XIB1-a or XIB1-b. After stimulation, membrane fractions were prepared by using the commercial available “Compartemental Protein Extraction Kit” from Biochain institutes. Membrane fractions were prepared according to the manufacturer instructions. GEF-activity in membrane lysates was determined by using “RhoGEF Exchange Assay Biochem Kit” from Cytoskeleton Inc. according to manufacturer instructions. GEF-activity was measured as fluorescence at using the Fluoroskan Ascent FL 2.6 from Thermo Electron Corporation. The excitation Filter wavelength was set at 355 nm and the emission filter wavelength at 460 nm.

[1] = system: Ventilator-Induced Lung Injury (VILI); experiment: Ventilator-induced lung injury (VILI) after LPS pre-challenge; type: in vivo; details: mice
Description: Experiments were performed with healthy C57BL/6 (aged 8-10 weeks, with weights ranging from 19-25 g). All interventions were performed according to the guide lines of AAALAC. All experiment were approved by the Ethic committee of the University of Amsterdam.
Mice were challenged with LPS (dosage: 50 μg per mouse) (or saline), via intranasal injection 2 h before initiation of mechanical ventilation, to induce lung injury.
XIB1-1b (or random peptide) was administered i.v. 10 min before start of mechanical ventilation (dosage: 4 mg/kg loading dose, followed administration i.v. injections 1 mg/kg/h.
A Y-tube connector with 1.0 mm outer diameter and 0.6 mm inner diameter was surgically inserted into the trachea under general anesthesia. Mice were placed in a supine position and connected to a ventilator. Mice were pressure-controlled ventilated with either an inspiratory pressure of 10 cm H2O (resulting in VT˜7.5 mL/kg; low VT, LVT) or an inspiratory pressure of 18 cm H2O (resulting in VT˜15 mL/kg; high VT, HVT). Positive end-expiratory pressure (PEEP) is set at 2 cm H2O with both MV-strategies. The fraction of inspired oxygen was kept at 0.5 throughout the experiment. The inspiration to expiration ratio was kept at 1:1 throughout the experiment.
BALF was obtained by instilling 3 times 0.5 mL aliquots of saline by a 22-gauge Abbocath-T catheter (Abbott, Sligo, Ireland) into the trachea. Approximately, 1.0 mL of BALF was retrieved per mouse and cell counts were determined using a hemacytometer (Beckman Coulter, Fullerton, Calif.). Subsequently, differential counts were done on cytospin preparations stained with a modified Giemsa stain, Diff-Quick (Dade Behring AG, Düdingen, Switzerland). Supernatant was stored at −80° C.
Total protein levels in BALF are determined using a Bradford Protein Assay Kit (OZ Biosciences, Marseille, France) according to manufacturers' instructions with bovine serum albumin as standard. Mouse IgM was determined by ELISA by using anti-Mouse IgM sensitized 96-strip micro-well plates according to manufacturers' instructions (IMMUNO-TEK kit from ZeptoMetrix).

[2] = CaCo-2, PMA 1 μg/ml, 1 min, with or without peptide 50 μg/ml
[3] = CaCo-2, PMA 1 μg/ml, 5 min, with or without peptide 50 μg/ml
[4] = CaCo-2, no stimulus, 1 min, peptide 50 μg/ml
[5] = CaCo-2, no stimulus, 5 min, peptide 50 μg/ml
[6] = LPS + high tidal volume ventilation (LPS-HTV), i.v. 4 mg/kg loading, then 1 mg/kg/h
[7] = LPS + low tidal volume ventilation (LPS+LTV), compared to scrambled peptide
[8] = LPS + low tidal volume ventilation (LPS+LTV), protocol caused no pronounced increase

| Sequence | GEF-activity, relative values compared to unstimulated control (Mean) (GEF; [2]) | GEF-activity, relative values compared to unstimulated control (Mean) (GEF; [3]) | GEF-activity, relative values compared to unstimulated control (Mean) (GEF; [4]) | GEF-activity, relative values compared to unstimulated control (Mean) (GEF; [5]) | IgM content in the BALF [1, 6] | neutrophil count in the BALF [1, 6] | total cell count in the BALF [1, 6] | total protein content in the BALF [1, 6] | neutrophil counts in the BALF [1, 7] | total cell counts in the BALF [1, 7] | IgM content in the BALF [1, 8] | total protein content in the BALF [1, 8] |
| --- | --- | --- | --- | --- | --- | --- | --- | --- | --- | --- | --- | --- |
| GRRPGGASGG (/note=“Description of artificial sequence cingulin-derived peptide XIB1-a”) | 1.4* | 1.5 | 1 | 1 | – | – | – | – | – | – | – | – |
| GRRPLGGISGG (/note=“Description of artificial sequence cingulin-derived peptide XIB1-b”) | 1.4* | 1.5 | 1 | 1 | significant decrease | significant decrease | significant decrease | significant decrease | significantly reduced | significantly reduced | no effect | no effect |
